# Assay results reported in the supplement of paper PMC10733146.
# What was measured:
# Experiment in all cases: viability relative to DMSO control (fraction); higher = less drug effect (more viable cells)
# Conditions in all cases: 48 h
# [1] = compound: C[C@H]1C[C@@H](n2c(Nc3ccc(OC(F)(F)F)cc3)nc3cc(CCC(=O)O)ccc32)CC(C)(C)C1
# In short: (§1)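 Viability is given as CellTiter-Glo luminescence relative to the median of 16 inner DMSO wells. Fresh or cryopreserved primary mononuclear tumour cells from blood, bone marrow (both Ficoll-isolated) or processed lymph node were plated at 4 × 10^4 cells per well in 384-well plates against five pre-plated compound concentrations, one well each. Incubation lasted 48 h at 37 °C and 5% CO2 in RPMI-1640 with penicillin/streptomycin, L-glutamine and human serum.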
# [2] = compound: O=C(Nc1nc2cccc(-c3ccc(CN4CCS(=O)(=O)CC4)cc3)n2n1)C1CC1 [Filgotinib]
# In short: as §1
# [3] = compound: CCNC(=O)C[C@@H]1N=C(c2ccc(Cl)cc2)c2cc(OC)ccc2-n2c(C)nnc21 [I-BET-762]
# In short: as §1
# [4] = compound: CC1(C)CCC(CN2CCN(c3ccc(C(=O)NS(=O)(=O)c4ccc(NCC5CCOCC5)c([N+](=O)[O-])c4)c(Oc4cnc5[nH]ccc5c4)c3)CC2)=C(c2ccc(Cl)cc2)C1 [Venetoclax]
# In short: as §1
# [5] = compound: CC1(C)CCC(c2ccc(Cl)cc2)=C(CN2CCN(c3ccc(C(=O)NS(=O)(=O)c4ccc(N[C@H](CCN5CCOCC5)CSc5ccccc5)c(S(=O)(=O)C(F)(F)F)c4)cc3)CC2)C1 [Navitoclax]
# In short: as §1
# [6] = compound: O=C(NO)c1cccc(C(=O)NCCc2ccccc2)c1
# In short: as §1
# [7] = compound: CCN(c1cc(-c2ccc(CN3CCOCC3)cc2)cc(C(=O)NCc2c(C)cc(C)[nH]c2=O)c1C)C1CCOCC1 [EPZ-6438]
# In short: as §1
# [8] = compound: C[C@H](NC(=O)CCC(F)(F)F)C(=O)N[C@@H]1C(=O)N(CCO)c2ncccc2-c2ccccc21
# In short: as §1
# [9] = compound: CCS(=O)(=O)N1CCC([C@@H](C)n2c(C)c(C(=O)NCc3c(OC)cc(C)[nH]c3=O)c3ccccc32)CC1 [CPI-169]
# In short: as §1
# [10] = compound: CCN(CCCOc1ccc2c(Nc3cc(CC(=O)Nc4cccc(F)c4)[nH]n3)ncnc2c1)CCOP(=O)(O)O [Barasertib]
# In short: as §1
# [11] = compound: CCc1ccc(/C=C2/SC(=S)NC2=O)cc1
# In short: as §1
# [12] = compound: CC(=O)c1c(C)c2cnc(Nc3ccc(N4CCNCC4)cn3)nc2n(C2CCCC2)c1=O [Palbociclib]
# In short: as §1
# [13] = compound: O=C1CCC(N2C(=O)c3ccccc3C2=O)C(=O)N1 [Thalidomide]
# In short: as §1
# [14] = compound: O=C(/C=C\n1cnc(-c2cc(C(F)(F)F)cc(C(F)(F)F)c2)n1)NNc1cnccn1 [Selinexor]
# In short: as §1
test system,measurement,setting,value
primary AML patient cells (S072),viability,[1]; 0.024 µM,0.873
same,viability,[1]; 0.12 µM,0.965
same,viability,[1]; 0.6 µM,0.97
same,viability,[1]; 3 µM,0.82
same,viability,[1]; 15 µM,1.06
same,viability,[2]; 0.024 µM,0.952
same,viability,[2]; 0.12 µM,0.97
same,viability,[2]; 0.6 µM,0.942
same,viability,[2]; 3 µM,0.86
same,viability,[2]; 15 µM,0.295
same,viability,[3]; 0.008 µM,0.946
same,viability,[3]; 0.04 µM,0.889
same,viability,[3]; 0.2 µM,0.787
same,viability,[3]; 1 µM,0.537
same,viability,[3]; 5 µM,0.393
same,viability,[4]; 0.00064 µM,1.02
same,viability,[4]; 0.0032 µM,0.901
same,viability,[4]; 0.016 µM,0.832
same,viability,[4]; 0.08 µM,0.739
same,viability,[4]; 0.4 µM,0.659
same,viability,[5]; 0.0032 µM,0.99
same,viability,[5]; 0.016 µM,1.18
same,viability,[5]; 0.08 µM,0.826
same,viability,[5]; 0.4 µM,0.709
same,viability,[5]; 2 µM,0.52
same,viability,[6]; 0.024 µM,0.933
same,viability,[6]; 0.12 µM,0.967
same,viability,[6]; 0.6 µM,0.974
same,viability,[6]; 3 µM,0.958
same,viability,[6]; 15 µM,0.89
same,viability,[7]; 0.024 µM,1.04
same,viability,[7]; 0.12 µM,1.29
same,viability,[7]; 0.6 µM,1.06
same,viability,[7]; 3 µM,1.16
same,viability,[7]; 15 µM,0.938
same,viability,[8]; 0.016 µM,1.08
same,viability,[8]; 0.08 µM,1.09
same,viability,[8]; 0.4 µM,0.931
same,viability,[8]; 2 µM,1.1
same,viability,[8]; 10 µM,1.06
same,viability,[9]; 0.024 µM,0.941
same,viability,[9]; 0.12 µM,0.897
same,viability,[9]; 0.6 µM,0.953
same,viability,[9]; 3 µM,0.89
same,viability,[9]; 15 µM,0.88
same,viability,[10]; 0.0008 µM,1.05
same,viability,[10]; 0.004 µM,0.848
same,viability,[10]; 0.02 µM,0.851
same,viability,[10]; 0.1 µM,0.857
same,viability,[10]; 0.5 µM,0.944
same,viability,[11]; 0.024 µM,0.797
same,viability,[11]; 0.12 µM,0.771
same,viability,[11]; 0.6 µM,0.851
same,viability,[11]; 3 µM,0.833
same,viability,[11]; 15 µM,0.825
same,viability,[12]; 0.024 µM,1.01
same,viability,[12]; 0.12 µM,0.922
same,viability,[12]; 0.6 µM,0.957
same,viability,[12]; 3 µM,0.747
same,viability,[12]; 15 µM,0.294
same,viability,[13]; 0.032 µM,1.02
same,viability,[13]; 0.16 µM,0.953
same,viability,[13]; 0.8 µM,1.02
same,viability,[13]; 4 µM,1
same,viability,[13]; 20 µM,1.09
same,viability,[14]; 0.008 µM,0.9
same,viability,[14]; 0.04 µM,0.844
same,viability,[14]; 0.2 µM,0.74
same,viability,[14]; 1 µM,0.571
same,viability,[14]; 5 µM,0.477
primary MCL patient cells (S041),viability,[1]; 0.024 µM,0.909
same,viability,[1]; 0.12 µM,0.992
same,viability,[1]; 0.6 µM,0.97
same,viability,[1]; 3 µM,0.903
same,viability,[1]; 15 µM,0.983
same,viability,[2]; 0.024 µM,0.953
same,viability,[2]; 0.12 µM,0.988
same,viability,[2]; 0.6 µM,0.965
same,viability,[2]; 3 µM,0.968
same,viability,[2]; 15 µM,0.386
same,viability,[3]; 0.008 µM,0.967
same,viability,[3]; 0.04 µM,0.999
same,viability,[3]; 0.2 µM,0.954
same,viability,[3]; 1 µM,0.819
same,viability,[3]; 5 µM,0.777
same,viability,[4]; 0.00064 µM,1.03
same,viability,[4]; 0.0032 µM,0.866
same,viability,[4]; 0.016 µM,0.384
same,viability,[4]; 0.08 µM,0.0604
same,viability,[4]; 0.4 µM,0.0328
same,viability,[5]; 0.0032 µM,1
same,viability,[5]; 0.016 µM,0.884
same,viability,[5]; 0.08 µM,0.64
same,viability,[5]; 0.4 µM,0.133
same,viability,[5]; 2 µM,0.0285
same,viability,[6]; 0.024 µM,1.01
same,viability,[6]; 0.12 µM,1.14
same,viability,[6]; 0.6 µM,1.03
same,viability,[6]; 3 µM,1.04
same,viability,[6]; 15 µM,1.07
same,viability,[7]; 0.024 µM,1.25
same,viability,[7]; 0.12 µM,1.16
same,viability,[7]; 0.6 µM,1.04
same,viability,[7]; 3 µM,1.11
same,viability,[7]; 15 µM,1
same,viability,[8]; 0.016 µM,1.15
same,viability,[8]; 0.08 µM,1.07
same,viability,[8]; 0.4 µM,1.02
same,viability,[8]; 2 µM,1.09
same,viability,[8]; 10 µM,0.93
same,viability,[9]; 0.024 µM,1.01
same,viability,[9]; 0.12 µM,1.02
same,viability,[9]; 0.6 µM,0.988
same,viability,[9]; 3 µM,1.05
same,viability,[9]; 15 µM,1.08
same,viability,[10]; 0.0008 µM,0.907
same,viability,[10]; 0.004 µM,0.919
same,viability,[10]; 0.02 µM,0.947
same,viability,[10]; 0.1 µM,0.965
same,viability,[10]; 0.5 µM,1.01
same,viability,[11]; 0.024 µM,0.901
same,viability,[11]; 0.12 µM,0.905
same,viability,[11]; 0.6 µM,0.933
same,viability,[11]; 3 µM,0.907
same,viability,[11]; 15 µM,0.918
same,viability,[12]; 0.024 µM,0.933
same,viability,[12]; 0.12 µM,0.948
same,viability,[12]; 0.6 µM,0.9
same,viability,[12]; 3 µM,0.738
same,viability,[12]; 15 µM,0.439
same,viability,[13]; 0.032 µM,0.959
same,viability,[13]; 0.16 µM,0.925
same,viability,[13]; 0.8 µM,0.959
same,viability,[13]; 4 µM,0.956
same,viability,[13]; 20 µM,1
same,viability,[14]; 0.008 µM,0.887
same,viability,[14]; 0.04 µM,0.809
same,viability,[14]; 0.2 µM,0.672
same,viability,[14]; 1 µM,0.42
same,viability,[14]; 5 µM,0.478
